Here are results for four compounds from patent US20160074351A1, “DISPENSING SYSTEM” (HZNP Limited, priority 2012, published 2016).

The conditions of data set [1]: major diclofenac metabolite; cited from earlier work.
For data set [2], the system named is rats. In words: Ocular effects of dermal DMSO, indirect ophthalmoscopy, rats. In kind it is in vivo. To be noted: multiple-daily dermal application for 26 weeks.
A further data set relates to rhesus monkeys. The settings on record: daily oral or dermal treatment for 9 to 18 months; cited from earlier work.
Data set [3] deals with rats. Kind of data set: Fertility studies of dermally applied DMSO. In kind it is in vivo. The text has this:
Studies conducted in rats found no effect of dermally applied DMSO on fertility, reproductive performance, or offspring performance.

For data set [4] the following is noted: published studies; cited from earlier work.
A further data set has as its system rabbits, dogs and pigs. The settings on record: dermal or oral administration; published studies; cited from earlier work.
For the next data set, the system named is minipigs. Kind of data set: Ocular effects of dermal DMSO, indirect ophthalmoscopy, minipigs. To be noted: multiple-daily dermal application for 52 weeks. In kind it is in vivo.
For a further data set, the system named is male and female rats. The settings on record: doses up to 4 mg/kg/day (1.4-fold of the MRHD); cited from earlier work.
The next data set has as its system rabbits. To be noted: doses up to 10 mg/kg/day (approximately […] the MRHD); cited from earlier work.
Data set [5] concerns rats. To be noted: doses up to 10 mg/kg/day (approximately 0.6-fold the MRHD); cited from earlier work.
The next data set relates to hairless mice. The settings on record: topical application at doses up to 0.035%; cited from earlier work.
Data set [6] relates to mice. The settings on record: dietary constituent for 2 years, doses up to 2 mg/kg/day; cited from earlier work.
In data set [7] the test system is rats. The settings on record: dietary constituent for 2 years, doses up to 2 mg/kg/day; cited from earlier work.
The next data set relates to albino mice. To be noted: daily topical applications for two years at concentrations up to 0.035%; cited from earlier work.
Data set [8] concerns mice. To be noted: doses up to 20 mg/kg/day (0.6-fold the MRHD), maternal and fetal toxicity induced; cited from earlier work.
For data set [9] the following is noted: in vivo; cited from earlier work.
The conditions of data set [10]: bacterial reverse mutation, mouse lymphoma point mutation, CHO chromosomal aberration in vitro, in vivo rat bone marrow chromosomal aberration; cited from earlier work.
In a further data set the test system is patients. The settings on record: cited from earlier work.
The subject of data set [11] is patients with osteoarthritis. To be noted: combination vs. oral diclofenac alone.
Data set [12] concerns rats. To be noted: cited from earlier work.
For data set [13] the following is noted: case report in the literature; cited from earlier work.
The conditions of data set [14]: oral diclofenac sodium; cited from earlier work.

As for `O=C(O)Cc1ccccc1Nc1c(Cl)cc(O)cc1Cl` [4′-hydroxy-diclofenac], the pharmacologic activity entry in data set [1] is “very weak pharmacologic activity”.
For `C[S+](C)[O-]` [DMSO, dimethyl sulfoxide], the “ocular adverse effects by indirect ophthalmoscopy” value in the data set with rats [2] and in the data set with minipigs was “No adverse effects were observed” each time. In addition, the ocular abnormalities result with rhesus monkeys was “no ocular abnormalities were observed”. In addition, in the data set with rats [3], the “fertility, reproductive performance, or offspring performance” value is reported as “no effect”. Also, the potential teratogenicity result in [4] was “equivocal”. Besides, the “ocular findings by slit-lamp biomicroscopy” value in the data set with rabbits, dogs and pigs is “refractive changes of lens curvature and cortical fibers indicative of myopic changes and/or incidences of lens opacity or discoloration”.
Take `O=C([O-])Cc1ccccc1Nc1c(Cl)cccc1Cl.[Na+]` [diclofenac sodium]: the fertility result in the data set on male and female rats was “did not affect fertility”. Besides, the teratogenicity entry in the data set with rabbits, with rats [5] and with mice [8] was “did not produce teratogenicity” throughout. Moreover, the “time of onset of tumors” value in the data set with hairless mice is recorded as “earlier median time of onset of tumors”. Moreover, the tumor incidence entry with mice [6] and in the data set with rats [7] was “no significant increases in tumor incidence” each time. Further, the neoplasm incidence result in the data set with albino mice is listed as “did not increase neoplasm incidence”.
As for `O=C(O)Cc1ccccc1Nc1c(Cl)cccc1Cl` [diclofenac], in [9], the “free unchanged diclofenac excreted in the urine” value is recorded as “Little or no”. For the same compound, the mutagenicity / clastogenicity entry in [10] is “not mutagenic or clastogenic”. For the same compound, the “patients with marked transaminase elevations whose abnormal tests occurred during the first 2 months of therapy” value in the data set on patients (all trials) is reported as 42 of the 51 patients. The “borderline (less than 3 times ULN) or greater elevations of transaminases, patients” value in the data set on patients (clinical trials of indications other than acute pain) is listed as “about 15%”. In the data set with patients (open-label controlled trial, 3,700 patients treated for 2 to 6 months), the “meaningful elevations of ALT and/or AST, patients” value is “about 4%”. For the same compound, the “marked elevations (>8 times the ULN) of ALT and/or AST, patients” value in the data set with patients (open-label controlled trial, 3,700 patients) is on record as “about 1%”. In addition, in the data set with patients (open-label study), the “incidence of borderline, moderate and marked elevations of ALT or AST compared to other NSAIDs” value is “higher incidence”. In addition, in data set [11], the abnormal creatinine turned out to be 7%, the abnormal hemoglobin amounted to 9%, the abnormal urea is 12% and the “rate of rectal hemorrhage” value is “less than 1%”. Moreover, the “effects of maternal exposure on labor and delivery” value in the data set on rats [12] is “increased the incidence of dystocia, delayed parturition, and decreased offspring survival”. Besides, in data set [13], the “detection in breast milk” value is on record as “can be detected at low levels”. In data set [14], the “binding of diclofenac to protein when administered with aspirin” value is listed as “reduced” and the “clearance of free diclofenac when administered with aspirin” value is recorded as “not altered”.
